The values below come from patent publication US10519177B2, “Heterocyclic compounds and uses thereof” (Plexxikon Inc., priority 2013, dated 2019).

Where only a bound is given, the exact number is not on record here.

As a reminder, the IC50 is the concentration that gives 50% inhibition.

Experiment [1] concerns the target BRD4-BD12 (1-477) (Homo sapiens (Human), UniProt O60885). Description: Alphascreen binding assay BRD4-BD12. To be noted: BRD4(1 2) H4; read-out: Biochemical activity (IC50 μM) BRD4(1 2) H4. The essentials: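 First, compound was preincubated 1 h at room temperature with the His-tagged BRD4 protein (BD1 44-164 or tandem BD12 1-477) and acetylated H4 peptide. Next, donor and acceptor beads were added at 7.5 μg/ml final. After 30 min, AlphaScreen emission was recorded.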
Background: Alpha assays give light when donor and acceptor beads are brought close together.

The subject of experiment [2] is bromodomain. Description: at least one of the bromodomain cell assays of Example 57. It is filed as cell-based. The following applies: at least one of the bromodomain cell assays described in Example 57; read-out: IC50 in at least one of the bromodomain cell assays.
The test system of experiment [3] is MV-4-11 cells. Description: Oncology cell growth assay MV-4-11 (CellTiter Glo). To be noted: Homo sapiens, MV4-11, 72 h; MV-4-11, 3d growth; read-out: Cell activity (IC50 μM) MV-4-11 3d-Growth. It is filed as cell-based. The procedure, abridged:
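MV-4-11 AML cells (MLL-AF4), 3000 per well, exposed to 8-point 1:3 compound titration from 10 μM top concentration (0.2% DMSO) for 72 h. Viability by CellTiter Glo luminescence, normalized to DMSO controls; pIC50 from four-parameter curve fit.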

As to `Cc1noc(C)c1-c1cnc2c(-c3cc(C(=O)O)cs3)cn(CC3CCC(F)(F)CC3)c2c1` [P-0486, 5-[1-[(4,4-difluorocyclohexyl)methyl]-6-(3,5-dimethylisoxazol-4-yl)pyrrolo[3,2-b]pyridin-3-yl]thiophene-3-carboxylic acid], the IC50 was less than 1 µM in experiment [1], less than 10000 nM in experiment [2] and less than 1 µM in experiment [3].
Turning to `Cc1noc(C)c1-c1cnc2c(-c3ccc(C(=O)O)c(O)c3)cn(CC3CCC(F)(F)CC3)c2c1` [P-0487, 4-[1-[(4,4-difluorocyclohexyl)methyl]-6-(3,5-dimethylisoxazol-4-yl)pyrrolo[3,2-b]pyridin-3-yl]-2-hydroxy-benzoic acid], the IC50 in experiment [1] is less than 1 µM; in experiment [2] it was less than 10000 nM; in experiment [3] it was less than 1 µM.
For the molecule `Cc1noc(C)c1-c1cnc2c(-c3cccc(O)c3)cn(CC3(F)CCCCC3)c2c1` [P-0488, 3-[6-(3,5-dimethylisoxazol-4-yl)-1-[(1-fluorocyclohexyl)methyl]pyrrolo[3,2-b]pyridin-3-yl]phenol], the IC50 in experiment [1] is less than 1 µM; in experiment [2], less than 10000 nM; in experiment [3], less than 1 µM.
In the case of `CNS(=O)(=O)c1cccc(-c2cn(CC3(F)CCCCC3)c3cc(-c4c(C)noc4C)cnc23)c1` [P-0489, 3-[6-(3,5-dimethylisoxazol-4-yl)-1-[(1-fluorocyclohexyl)methyl]pyrrolo[3,2-b]pyridin-3-yl]-N-methyl-benzenesulfonamide], the figures for the IC50 in experiment [1], in experiment [2] and in experiment [3] were less than 1 µM, less than 10000 nM and less than 1 µM, respectively.
For the molecule `Cc1noc(C)c1-c1cnc2c(-c3cccc(S(=O)(=O)NC4CC4)c3)cn(CC3(F)CCCCC3)c2c1` [P-0490, N-cyclopropyl-3-[6-(3,5-dimethylisoxazol-4-yl)-1-[(1-fluorocyclohexyl)methyl]pyrrolo[3,2-b]pyridin-3-yl]benzenesulfonamide], the results for the IC50 in experiment [1], in experiment [2] and in experiment [3] were less than 1 µM, less than 10000 nM and less than 1 µM, respectively.
In the case of `Cc1noc(C)c1-c1cnc2c(-c3cccc(S(=O)(=O)NCCO)c3)cn(CC3(F)CCCCC3)c2c1` [P-0491, 3-[6-(3,5-dimethylisoxazol-4-yl)-1-[(1-fluorocyclohexyl)methyl]pyrrolo[3,2-b]pyridin-3-yl]-N-(2-hydroxyethyl)benzenesulfonamide], the concentration for half-maximal inhibition (IC50) is less than 1 µM in experiment [1], less than 10000 nM in experiment [2] and less than 1 µM in experiment [3].
On to `Cc1noc(C)c1-c1cnc2c(-c3cccc(NS(C)(=O)=O)c3)cn(CC3(F)CCCCC3)c2c1` [P-0492, N-[3-0[6-(3,5-dimethylisoxazol-4-yl)-1-[(1-fluorocyclohexyl)methyl]pyrrolo[3,2-b]pyridin-3-yl]phenyl]methanesulfonamide], for which the IC50 in experiment [1] was less than 1 µM; in experiment [2] it was less than 10000 nM; in experiment [3], less than 1 µM.
Regarding `COC(=O)Nc1ccc(-c2cn(CC3(F)CCCCC3)c3cc(-c4c(C)noc4C)cnc23)cc1` [P-0493, methyl N-[4-[6-(3,5-dimethylisoxazol-4-yl)-1-[(1-fluorocyclohexyl)methyl]pyrrolo[3,2-b]pyridin-3-yl]phenyl]carbamate], the IC50 in experiment [1] was less than 1 µM; in experiment [2] it was less than 10000 nM; in experiment [3], less than 1 µM.
Take `Cc1noc(C)c1-c1cnc2c(-c3ccc(S(=O)(=O)NC4CC4)cc3)cn(CC3(F)CCCCC3)c2c1` [P-0494, N-cyclopropyl-4-[6-(3,5-dimethylisoxazol-4-yl)-1-[(1-fluorocyclohexyl)methyl]pyrrolo[3,2-b]pyridin-3-yl]benzenesulfonamide]: the half-inhibitory concentration (IC50) in experiment [1] is less than 1 µM; in experiment [2], less than 10000 nM; in experiment [3], less than 1 µM.
Consider `Cc1noc(C)c1-c1cnc2c(-c3ccc(NS(C)(=O)=O)cc3)cn(CC3(F)CCCCC3)c2c1` [P-0495, N-[4-[6-(3,5-dimethylisoxazol-4-yl)-1-[(1-fluorocyclohexyl)methyl]pyrrolo[3,2-b]pyridin-3-yl]phenyl]methanesulfonamide], for which the IC50 was less than 1 µM in experiment [1], less than 10000 nM in experiment [2] and less than 1 µM in experiment [3].
As to `CC(=O)Nc1ccc(-c2cn(CC3(F)CCCCC3)c3cc(-c4c(C)noc4C)cnc23)cc1` [P-0496, N-[4-[6-(3,5-dimethylisoxazol-4-yl)-1-[(1-fluorocyclohexyl)methyl]pyrrolo[3,2-b]pyridin-3-yl]phenyl]acetamide], the results for the IC50 in experiment [1], in experiment [2] and in experiment [3] were less than 1 µM, less than 10000 nM and less than 1 µM, respectively.
Regarding `CONC(=O)c1ccc(-c2cn(CC3(F)CCCCC3)c3cc(-c4c(C)noc4C)cnc23)cc1` [P-0497, 4-[6-(3,5-dimethylisoxazol-4-yl)-1-[(1-fluorocyclohexyl)methyl]pyrrolo[3,2-b]pyridin-3-yl]-N-methoxy-benzamide], the IC50 in experiment [1] is less than 1 µM; in experiment [2], less than 10000 nM; in experiment [3], less than 1 µM.
`Cc1noc(C)c1-c1cnc2c(-c3ccc4[nH]c(=O)[nH]c4c3)cn(CC3(F)CCCCC3)c2c1` [P-0498, 5-[6-(3,5-dimethylisoxazol-4-yl)-1-[(1-fluorocyclohexyl)methyl]pyrrolo[3,2-b]pyridin-3-yl]-1,3-dihydrobenzimidazol-2-one]: the IC50 in experiment [1] was less than 1 µM; in experiment [2], less than 10000 nM; in experiment [3], less than 1 µM.
Consider `Cc1noc(C)c1-c1cnc2c(-c3ccc4[nH]ncc4c3)cn(CC3(F)CCCCC3)c2c1` [P-0499, 4-[1-[(1-fluorocyclohexyl)methyl]-3-(1H-indazol-5-yl)pyrrolo[3,2-b]pyridin-6-yl]-3,5-dimethyl-isoxazole], for which the figures for the IC50 in experiment [1], in experiment [2] and in experiment [3] were less than 1 µM, less than 10000 nM and less than 1 µM, respectively.
`Cc1noc(C)c1-c1cnc2c(-c3ccc(O)c(F)c3)cn(CC3(F)CCCCC3)c2c1` [P-0500, 4-[6-(3,5-dimethylisoxazol-4-yl)-1-[(1-fluorocyclohexyl)methyl]pyrrolo[3,2-b]pyridin-3-yl]-2-fluoro-phenol]: the IC50 in experiment [1] is less than 1 µM; in experiment [2], less than 10000 nM; in experiment [3], less than 1 µM.
With `Cc1noc(C)c1-c1cnc2c(-c3ccccc3C(=O)O)cn(CC3(F)CCCCC3)c2c1` [P-0501, 2-[6-(3,5-dimethylisoxazol-4-yl)-1-[(1-fluorocyclohexyl)methyl]pyrrolo[3,2-b]pyridin-3-yl]benzoic acid], the IC50 in experiment [1] is less than 1 µM; in experiment [2] it was less than 10000 nM; in experiment [3] it was less than 1 µM.
`Cc1noc(C)c1-c1cnc2c(-c3ccc(C(=O)O)c(O)c3)cn(CC3(F)CCCCC3)c2c1` [P-0502, 4-[6-(3,5-dimethylisoxazol-4-yl)-1-[(1-fluorocyclohexyl)methyl]pyrrolo[3,2-b]pyridin-3-yl]-2-hydroxy-benzoic acid]: the IC50 in experiment [1] is less than 1 µM; in experiment [2], less than 10000 nM; in experiment [3] it was less than 1 µM.
In the case of `Cc1noc(C)c1-c1cnc2c(-c3ccc(OCC(=O)O)cc3)cn(CC3(F)CCCCC3)c2c1` [P-0503, 2-[4-[6-(3,5-dimethylisoxazol-4-yl)-1-[(1-fluorocyclohexyl)methyl]pyrrolo[3,2-b]pyridin-3-yl]phenoxy]acetic acid], the values for the half-inhibitory concentration (IC50) in experiment [1], in experiment [2] and in experiment [3] were less than 1 µM, less than 10000 nM and less than 1 µM, respectively.
On to `COc1cc(-c2cn(CC3(F)CCCCC3)c3cc(-c4c(C)noc4C)cnc23)ccc1C(=O)O` [P-0504, 4-[6-(3,5-dimethylisoxazol-4-yl)-1-[(1-fluorocyclohexyl)methyl]pyrrolo[3,2-b]pyridin-3-yl]-2-methoxy-benzoic acid], for which the IC50 in experiment [1] is less than 1 µM; in experiment [2], less than 10000 nM; in experiment [3], less than 1 µM.
As to `Cc1noc(C)c1-c1cnc2c(-c3ccc4c(c3)CNC4=O)cn(CC3(F)CCCCC3)c2c1` [P-0505, 5-[6-(3,5-dimethylisoxazol-4-yl)-1-[(1-fluorocyclohexyl)methyl]pyrrolo[3,2-b]pyridin-3-yl]isoindolin-1-one], the IC50 in experiment [1] is less than 1 µM; in experiment [2], less than 10000 nM; in experiment [3], less than 1 µM.
As for `Cc1cc(-c2cn(CC3(F)CCCCC3)c3cc(-c4c(C)noc4C)cnc23)ccc1C(=O)O` [P-0506, 4-[6-(3,5-dimethylisoxazol-4-yl)-1-[(1-fluorocyclohexyl)methyl]pyrrolo[3,2-b]pyridin-3-yl]-2-methyl-benzoic acid], the IC50 was less than 1 µM in experiment [1], less than 10000 nM in experiment [2] and less than 1 µM in experiment [3].
As to `Cc1noc(C)c1-c1cnc2c(-c3ccc(C4(C#N)CC4)cc3)cn(CC3CCC(F)(F)CC3)c2c1` [P-0507, 1-[4-[1-[(4,4-difluorocyclohexyl)methyl]-6-(3,5-dimethylisoxazol-4-yl)pyrrolo[3,2-b]pyridin-3-yl]phenyl]cyclopropanecarbonitrile], the results for the IC50 in experiment [1], in experiment [2] and in experiment [3] were less than 1 µM, less than 10000 nM and less than 1 µM, respectively.
For the molecule `COC(=O)c1ccc(-c2cn([C@H](C)c3ccccn3)c3cc(-c4c(C)noc4C)cnc23)cc1` [P-0508, methyl 4-[6-(3,5-dimethylisoxazol-4-yl)-1-[(1R)-1-(2-pyridyl)ethyl]pyrrolo[3,2-b]pyridin-3-yl]benzoate], the IC50 in experiment [1] was less than 1 µM; in experiment [2] it was less than 10000 nM; in experiment [3], less than 1 µM.
As to `COC(=O)c1ccc(-c2cn([C@@H](C)c3ccccn3)c3cc(-c4c(C)noc4C)cnc23)cc1` [P-0509, methyl 4-[6-(3,5-dimethylisoxazol-4-yl)-1-[(1S)-1-(2-pyridyl)ethyl]pyrrolo[3,2-b]pyridin-3-yl]benzoate], the values for the IC50 in experiment [1], in experiment [2] and in experiment [3] were less than 1 µM, less than 10000 nM and less than 1 µM, respectively.
